Test results published in patent US9249110B2, “Substituted quinoxalines as B-raf kinase inhibitors” (NEUPHARMA, INC., priority 2011, dated 2016).

What was measured:
BRAF = target: T1, BRAF (Homo sapiens, UniProt P15056); assay: Z′-LYTE kinase inhibition assay against BRAF (Invitrogen); format: biochemical; conditions: 1 μM compound, Z′-LYTE method
T1 construct: purchased Invitrogen
Protocol: (§1) Inhibitory activities of compounds against BRAF or BRAF V600E were measured by Invitrogen using Z′-LYTE® Method as briefly described in the following.
(§2) 4× Test compounds are dissolved in 1% DMSO. […] ATP solutions are diluted to a 4×ATP working concentration in Kinase Buffer (50 mM HEPES pH 7.5, 0.01% BRIJ-35, 10 mM MgCl2, 1 mM EGTA).
(§3) Reaction starts by 30-second shaking of mixture consisting of 2.5 μL4× test compound, […] and 2.5 μL 4×ATP Solution on Bar-coded Corning, low volume NBS, black 384-well plate (Corning Cat. #3676). Then the mixture is incubated for 60-minute at room temperature for the kinase reaction, followed by addition of 5 μL of a 1:1024 dilution of development reagent A and 30-second plate shake. The mixture is then incubated for another 60-minute at room temperature for development reaction. Finally fluorescence is read by plate reader.

BRAF V600E = target: T2, BRAF V600E (Homo sapiens, UniProt P15056, V600E); assay: Z′-LYTE kinase inhibition assay against BRAF V600E (Invitrogen); format: biochemical; conditions: 1 μM compound, Z′-LYTE method
T2 construct: purchased Invitrogen
T2 sequence (P15056 whole entry V600E): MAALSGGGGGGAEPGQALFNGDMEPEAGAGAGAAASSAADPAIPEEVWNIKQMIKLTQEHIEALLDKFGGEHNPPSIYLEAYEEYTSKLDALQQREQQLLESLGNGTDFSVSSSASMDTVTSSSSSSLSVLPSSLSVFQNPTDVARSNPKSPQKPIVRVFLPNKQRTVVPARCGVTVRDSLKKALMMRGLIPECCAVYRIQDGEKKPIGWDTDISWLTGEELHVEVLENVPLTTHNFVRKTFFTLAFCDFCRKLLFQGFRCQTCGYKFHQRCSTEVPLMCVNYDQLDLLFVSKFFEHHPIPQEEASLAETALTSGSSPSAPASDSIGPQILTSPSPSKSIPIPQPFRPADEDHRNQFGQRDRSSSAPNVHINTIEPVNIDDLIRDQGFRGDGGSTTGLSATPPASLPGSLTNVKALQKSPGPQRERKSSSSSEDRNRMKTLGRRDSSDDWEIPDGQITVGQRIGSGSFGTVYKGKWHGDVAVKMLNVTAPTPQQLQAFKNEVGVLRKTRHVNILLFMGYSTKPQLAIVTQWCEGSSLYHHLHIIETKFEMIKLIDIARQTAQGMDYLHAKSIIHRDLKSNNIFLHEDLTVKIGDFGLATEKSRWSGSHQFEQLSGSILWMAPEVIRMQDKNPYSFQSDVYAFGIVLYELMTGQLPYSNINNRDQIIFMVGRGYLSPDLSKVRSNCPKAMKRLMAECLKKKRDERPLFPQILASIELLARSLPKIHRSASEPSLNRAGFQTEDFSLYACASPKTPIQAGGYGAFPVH
Protocol: as §1, §2, §3

A375 cells = assay: Inhibition of cancer cell growth, MTT assay, A375 cells; format: cell-based; conditions: Homo sapiens, A-375, 72 h compound exposure
Protocol: (§4) Inhibition of cell growth by compounds was measured using MTT assay (Mosmann, T., Journal of Immunological Methods, 1983, 65, 55-63). Tumor cell lines were purchased from ATCC (American Type Culture Collection, Manassas, Va.). All cell lines were maintained in RPMI 1640 (Hyclone) supplemented with 10% fetal bovine serum (FBS, Hyclone), glutamine (2 mM, Hyclone), and antibiotics (penicillin 100 U/mL and streptomycin 50 μg/mL) at 37° C. in a humidified atmosphere of 5% CO2 in air. Taxol (as a positive control, Sigma) and compounds were dissolved in DMSO (Sigma), and the final concentration of DMSO in the medium was 1%. Tumor cells were plated in 96-well plates at densities of about 4000 cells/well of a 96-well plate and allowed to adhere/grow for 24 h. They were then treated with various concentrations of drug for 72 h. 3-(4,5-Dimethylthiazol-2-yl)-2,5-diphenyltetrazolium bromide (MTT, Sigma) was used to determine the number of viable cells at the time of compound addition and the number of cells remaining after 72 h compound exposure. The number of cells remaining after 72 h was compared to the number of viable cells at the time of compound addition by measuring the absorbance at 570 nm, allowing for the calculation of growth inhibition.
(§5) All concentrations of compounds were tested in triplicate and controls were averaged over 4 wells. IC50 was calculated by plotting the concentration of compound vs the percentage of inhibition in treated wells using GraphPad Prism 5. […] The scale utilized in Table 4 is as follows: +++ less than 1000 nM, ++ between 1000 and 5000 nM, and + greater than 5000 nM.

A549 cells = assay: Inhibition of cancer cell growth, MTT assay, A549 cells; format: cell-based; conditions: Homo sapiens, 72 h compound exposure
Protocol: as §4, §5

KDR (VEGFR2) = target: T3, KDR (VEGFR2) (Homo sapiens, UniProt P35968); assay: Z′-LYTE kinase inhibition assay against KDR (Invitrogen); format: biochemical; conditions: 1 μM compound, Z′-LYTE method
T3 construct: purchased Invitrogen
T3 sequence (P35968 20-1356): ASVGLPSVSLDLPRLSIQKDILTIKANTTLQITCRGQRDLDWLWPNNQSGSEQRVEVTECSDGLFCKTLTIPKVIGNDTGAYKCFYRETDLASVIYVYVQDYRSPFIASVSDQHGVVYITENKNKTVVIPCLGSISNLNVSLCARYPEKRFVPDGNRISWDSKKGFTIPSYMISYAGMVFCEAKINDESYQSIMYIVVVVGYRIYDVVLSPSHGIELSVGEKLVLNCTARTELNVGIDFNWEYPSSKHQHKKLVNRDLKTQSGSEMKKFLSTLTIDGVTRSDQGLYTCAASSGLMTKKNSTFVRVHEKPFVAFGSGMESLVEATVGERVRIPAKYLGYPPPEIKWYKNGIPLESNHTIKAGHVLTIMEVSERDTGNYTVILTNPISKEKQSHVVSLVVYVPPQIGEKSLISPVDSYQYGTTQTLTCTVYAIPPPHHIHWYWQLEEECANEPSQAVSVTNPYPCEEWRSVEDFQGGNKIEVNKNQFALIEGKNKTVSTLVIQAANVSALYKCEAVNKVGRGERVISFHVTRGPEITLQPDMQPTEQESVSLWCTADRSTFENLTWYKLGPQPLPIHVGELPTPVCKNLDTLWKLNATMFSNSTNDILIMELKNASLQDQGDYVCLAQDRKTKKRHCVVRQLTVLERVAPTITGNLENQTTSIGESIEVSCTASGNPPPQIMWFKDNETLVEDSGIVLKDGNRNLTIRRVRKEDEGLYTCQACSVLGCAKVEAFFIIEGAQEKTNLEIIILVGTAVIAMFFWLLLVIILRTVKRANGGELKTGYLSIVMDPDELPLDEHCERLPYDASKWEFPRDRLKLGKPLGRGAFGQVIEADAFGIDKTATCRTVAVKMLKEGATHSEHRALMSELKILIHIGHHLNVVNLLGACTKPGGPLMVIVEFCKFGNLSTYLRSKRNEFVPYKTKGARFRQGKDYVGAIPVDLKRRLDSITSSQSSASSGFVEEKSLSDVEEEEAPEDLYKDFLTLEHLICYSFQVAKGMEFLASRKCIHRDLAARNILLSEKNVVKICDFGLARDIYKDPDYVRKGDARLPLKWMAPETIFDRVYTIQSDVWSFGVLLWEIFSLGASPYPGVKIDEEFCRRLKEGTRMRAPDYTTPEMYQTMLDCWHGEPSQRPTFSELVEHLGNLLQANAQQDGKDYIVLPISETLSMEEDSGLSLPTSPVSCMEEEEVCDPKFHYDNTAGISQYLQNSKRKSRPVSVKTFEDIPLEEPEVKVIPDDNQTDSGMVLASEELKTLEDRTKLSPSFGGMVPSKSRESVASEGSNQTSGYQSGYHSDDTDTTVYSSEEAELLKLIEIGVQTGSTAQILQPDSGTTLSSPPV
Protocol: Inhibitory activities of compounds against KDR (VEGFR2) were also measured by Invitrogen using Z′-LYTE® Method as described above with the following modification. The 2×KDR (VEGFR2)/Tyr 01 mixture is prepared in 50 mM HEPES pH 7.5, 0.01% BRIJ-35, 10 mM MgCl2, 1 mM EGTA. The final 10 μL Kinase Reaction consists of 0.5-11.7 ng KDR (VEGFR2) and 2 μM Tyr 01 in 50 mM HEPES pH 7.5, 0.01% BRIJ-35, 10 mM MgCl2, 1 mM EGTA. After the 1 hour Kinase Reaction incubation, 5 μL of a 1:256 dilution of Development Reagent B is added. […] The scale utilized in Table 3 is as follows: ++ more than 70% inhibition and + less than 70% inhibition.

T1 sequence (P15056 whole entry): as the sequence (P15056 whole entry V600E) above, with E600V counted along it

| SMILES | inhibition at 1 µM (BRAF) [%] | inhibition at 1 µM (BRAF V600E) [%] | IC50 (A375 cells) [µM] | IC50 (A549 cells) [µM] | inhibition at 1 µM (KDR (VEGFR2)) [%] |
| --- | --- | --- | --- | --- | --- |
| CCCS(=O)(=O)Nc1ccc(F)c(C(=O)c2ccc3nccnc3c2)c1F [Compound C01, N-(2,4-difluoro-3-(quinoxaline-6-carbonyl)phenyl)propane-1-sulfonamide] | 70 to 89 | > 89 | < 1 | < 1 |  |
| CCCS(=O)(=O)Nc1ccc(F)c(C(=O)c2ccc3ncc(C#N)nc3c2)c1F [Compound C04, N-(3-(3-cyanoquinoxaline-6-carbonyl)-2,4-difluorophenyl)propane-1-sulfonamide] | 70 to 89 | > 89 | < 1 | < 1 |  |
| CCCS(=O)(=O)Nc1ccc(F)c(C(=O)c2ccc3ncc(-c4ccc(Cl)cc4)nc3c2)c1F [Compound C02, N-(3-(3-(4-chlorophenyl)quinoxaline-6-carbonyl)-2,4-difluorophenyl)propane-1-sulfonamide] | 70 to 89 | > 89 | < 1 | < 1 |  |
| CCCS(=O)(=O)Nc1ccc(F)c(C(=O)c2ccc3ncc(OC)nc3c2)c1F [Compound C03, N-(2,4-difluoro-3-(3-methoxyquinoxaline-6-carbonyl)phenyl)propane-1-sulfonamide] | 70 to 89 | > 89 | 1 to 5 | 1 to 5 |  |
| CCCS(=O)(=O)Nc1ccc(F)c(C(=O)c2ccc3ncc(N4CCOCC4)nc3c2)c1F [Compound C05, N-(2,4-difluoro-3-(3-morpholinoquinoxaline-6-carbonyl)phenyl)propane-1-sulfonamide] |  |  | 1 to 5 |  |  |
| O=C(Nc1cccc(C(F)(F)F)c1)Nc1ccc(F)c(C(=O)c2ccc3nccnc3c2)c1F [Compound C06, 1-(2,4-difluoro-3-(quinoxaline-6-carbonyl)phenyl)-3-(3-(trifluoromethyl)phenyl)urea] |  | 70 to 89 | > 5 | > 5 | < 70 |

Other lines, results leading:

| inhibition at 1 µM (BRAF) [%] | inhibition at 1 µM (BRAF V600E) [%] | IC50 (A375 cells) [µM] | IC50 (A549 cells) [µM] | inhibition at 1 µM (KDR (VEGFR2)) [%] | SMILES |
| --- | --- | --- | --- | --- | --- |
|  | < 70 | 1 to 5 | > 5 | < 70 | O=C(Nc1ccc(Cl)c(C(F)(F)F)c1)Nc1ccc(F)c(C(=O)c2ccc3nccnc3c2)c1F [Compound C08, 1-(4-chloro-3-(trifluoromethyl)phenyl)-3-(2,4-difluoro-3-(quinoxaline-6-carbonyl)phenyl)urea] |
|  | 70 to 89 | > 5 | > 5 | > 70 | O=C(Nc1ccc(F)c(C(=O)c2ccc3nccnc3c2)c1F)c1cccc(C(F)(F)F)c1 [Compound C10, N-(2,4-difluoro-3-(quinoxaline-6-carbonyl)phenyl)-3-(trifluoromethyl)benzamide] |
|  | 70 to 89 | > 5 | 1 to 5 | < 70 | O=C(Nc1cccc(F)c1)Nc1ccc(F)c(C(=O)c2ccc3nccnc3c2)c1F [Compound C07, 1-(2,4-difluoro-3-(quinoxaline-6-carbonyl)phenyl)-3-(3-fluorophenyl)urea] |
|  | 70 to 89 | > 5 | > 5 |  | O=C(Nc1ccc(F)c(C(=O)c2ccc3nccnc3c2)c1F)c1cccc(F)c1 [Compound C09, N-(2,4-difluoro-3-(quinoxaline-6-carbonyl)phenyl)-3-fluorobenzamide] |
